Assay results as given in US5527793A, “Antibiotic carbapenem compounds” (Zeneca Limited, priority 1992, dated 1996).
Structures can show the parent of a compound that is named as a salt.

What was measured:
Experiment in all cases: MIC by agar-dilution technique, Diagnostic Sensitivity Test
Type in all cases: cell-based
[1] = tested on: S. aureus Oxford; conditions: Staphylococcus aureus, inoculum 10^4 CFU/spot, read-out: minimum inhibitory concentration (MIC)
Excerpt: (§1) The following results were obtained for representative compounds on a standard in vitro test system using Diagnostic Sensitivity Test. The antibacterial activity is described in terms of the minimum inhibitory concentration (MIC) determined by the agar-dilution technique with an inoculum size of 10^4 CFU/spot.

[2] = tested on: P. morganii I + 001; conditions: Morganella morganii, inoculum 10^4 CFU/spot, read-out: minimum inhibitory concentration (MIC)
Excerpt: as §1

[3] = tested on: E. coli DCO; conditions: Escherichia coli, inoculum 10^4 CFU/spot, read-out: minimum inhibitory concentration (MIC)
Excerpt: as §1

[4] = tested on: B. fragilis AMP S; conditions: Bacteroides fragilis, inoculum 10^4 CFU/spot, read-out: minimum inhibitory concentration (MIC)
Excerpt: as §1

[5] = tested on: Enterobacter cloacae P99-; conditions: P99, read-out: minimum inhibitory concentration (MIC)
Excerpt: as §1

Q: What does the source list for C[C@@H](O)[C@H]1C(=O)N2C(C(=O)O)=C(S[C@@H]3CN[C@H](C(=O)Nc4nc(C(=O)O)cs4)C3)[C@H](C)[C@H]12 [Example 2, (1R,5S,6S,8R,2'S,4'S)-2-(2-(4-Carboxy-2-thiazolylcarbamoyl)pyrrolidin-4-ylthio)-6-(1-hydroxyethyl)71-methylcarbapenem-3-carboxylic acid, disodium salt]?
A: MIC [1]: 0.25 µg/mL; MIC [2]: 0.03 µg/mL; MIC [3]: 0.03 µg/mL; MIC [4]: 0.5 µg/mL; MIC [5]: 0.03 µg/mL
